Legend:
Sphaerotheca fuliginea = assay: Cucumber Powdery Mildew (CPM) protectant test in the greenhouse; type: in vivo; settings: 100 is total disease control, 0 is no disease control; for pest or weed control at 300 g/ha: Podosphaera fuliginea, topical, 168 h, read-out: Cucumber Powdery Mildew (CPM) protectant fungicide data, percent control; for Cucumber Powdery Mildew (CPM) protectant fungicide data, percent control: 300 g/ha
Experimental: Plants used in the fungicide testing program were grown in 2-¼-inch (5.7-cm). square pots containing RediEarth propagation substrate. The plants were raised under greenhouse conditions. The rice plants were 12-days-old and cucumbers were 13-days-old at the time of spraying with chemical treatments.
The sample of the experimental chemical was weighed and dissolved in an acetone-methanol-water solution (A/M/W at 1:1:2 ratio by volume).
After sprayer calibration, the test solutions were poured into the fungicide sprayer. The fungicide sprayer contains three spray nozzles, located approximately 10 cm above and to the sides of the plants. The spray produced by the nozzles results in uniform coverage of both the upper and lower parts of the plant leaves. After spraying, the treated plants were placed in a drying chamber for 4 hours, prior to sorting.
Cucumber Powdery Mildew (CPM), caused by the fungus Sphaerotheca fuliginea, was maintained on large cucumber plants. For inoculum preparation, five to eight leaves depending on size, completely covered with powdery mildew spores, were collected. The leaves were placed in a glass jar and covered with 500 ml of water, containing 5 drops of Tween-80. The material was filtered through two layers of cheesecloth to remove leaf fragments. The spore count was adjusted to 2×10^5 spores per ml.
Cucumber plants, cv. “Bush Champion,” were used for this test. The plants were thinned to one per pot after the cotyledons were fully developed. Two days before the test, the small leaves and meristem region were removed, leaving only the cotyledons and one large true leaf.
The protectant tests required that the cucumber plants be inoculated 1 day after spraying with the chemical treatment. The plants were inoculated with a hand-held spray bottle with the suspension of fungal spores. The leaves were lightly misted on the upper surface from two different spray directions. Disease development occurred in the greenhouse.
After seven days, the plants were evaluated for percent of disease control. The results are reported as percent control; 100 is total disease control, 0 is no disease control.

Pyricularia oryzae = assay: whole plant or invertebrate; type: in vivo; settings: 100 is total disease control, 0 is no disease control; for pest or weed control at 300 g/ha: Pyricularia oryzae, topical, 144 h, read-out: Rice Blast (RB) protectant fungicide data, percent control, protectant, 300 g/ha, greenhouse; for Rice Blast (RB) protectant fungicide data, percent control: 300 g/ha, greenhouse

| Compound | pest or weed control at 300 g/ha (Sphaerotheca fuliginea) | pest or weed control at 300 g/ha (Pyricularia oryzae) | Cucumber Powdery Mildew (CPM) protectant fungicide data, percent control (Sphaerotheca fuliginea) | Rice Blast (RB) protectant fungicide data, percent control (Pyricularia oryzae) |
| --- | --- | --- | --- | --- |
| CCCCN1N=C(c2cc(Cl)cc(Cl)c2)N(C(=O)OCCl)CC1=O [Compound 15, 1-(n-butyl)-3-(3,5-dichlorophenyl)-4-(chloromethyloxycarbonyl)-4,5-dihydro-1,2,4-triazin-6-one] | 50% | 75% | – | – |
| CCCCN1N=C(c2cc(C)cc(C)c2)NCC1=O [Compound 295] | – | – | 50 percent control | 99 percent control |
| C#CCN1N=C(c2cccc(F)c2)NCC1=O [Compound 225] | – | – | 0 percent control | 80 percent control |
| CCCCN1N=C(c2cc(Cl)cc(Cl)c2)N(C(=O)Oc2ccccc2)CC1=O [Compound 194] | – | – | 0 percent control | 80 percent control |
| O=c1[nH]c(-c2cc(Cl)cc(Cl)c2)nn(CC(F)(F)F)c1=O [Compound 21, 1-(2,2,2-Trifluorethyl)-3-(3,5-dichlorophenyl)-1,2,4-triazin-5,6-dione] | – | – | 50 percent control | 0 percent control |
| CCCCN1N=C(c2ccccc2O)NCC1=O [Compound 83, 1-n-Butyl-3-(2-hydroxyphenyl)-4,5-dihydro-1,2,4-triazin-6-one] | 0% | 80% | – | – |
| CCCCN1N=C(c2ccc(Cl)c(Cl)c2)N(Cc2ccc(OC)c(OC)c2)CC1=O [Compound 200] | – | – | 0 percent control | 85 percent control |
| N#CCN1N=C(c2ccc(Cl)cc2)NCC1=O [Compound 60] | – | – | 0 percent control | 75 percent control |
| CCCCN1N=C(C)NC(c2cccc(N)c2)C1=O (centres unmarked) [Compound 78] | – | – | 25 percent control | 0 percent control |
| C=CCN1N=C(c2cc(Cl)cc(Cl)c2)NCC1=O [Compound 128] | – | – | 0 percent control | 90 percent control |
| O=C1CNC(c2ccc(Cl)cc2)=NN1c1ccccc1 [Compound 28] | – | – | 85 percent control | 85 percent control |
| C=CCOC(=O)N1CC(=O)N(CC(F)(F)F)N=C1c1cc(Cl)cc(Cl)c1 [Compound 134] | – | – | 50 percent control | 80 percent control |
| CCCCCn1nc(-c2cc(Cl)c(C)c(Cl)c2)ncc1=O [Compound 257] | – | – | 50 percent control | 95 percent control |
| O=C1CNC(c2ccc3ccccc3c2)=NN1 [Compound 124] | – | – | 0 percent control | 75 percent control |
| CCCCN1N=C(C)NC(c2ccc(F)cc2)C1=O (centres unmarked) [Compound 93] | – | – | 75 percent control | 0 percent control |
| O=C1CNC(c2ccc(F)c(F)c2)=NN1Cc1ccccc1 [Compound 139] | – | – | 50 percent control | 99 percent control |
| CCCCN1N=C(c2ccc(Cl)cc2Cl)NCC1=O [Compound 2, 1-butyl-3-(2,4-dichlorophenyl)-4,5-dihydro-1,2,4-triazin-6-one] | 85% | 95% | – | – |
| C=CCOC(=O)N1CC(=O)N(CCCC)N=C1c1cc(Cl)cc(Cl)c1 [Compound 132] | – | – | 50 percent control | 85 percent control |
| CCCCN1N=C(c2cccc(Br)c2)NCC1=O [Compound 211] | – | – | 85 percent control | 100 percent control |
| CCc1ccc(C2=NN(CC(F)(F)F)C(=O)CN2)cc1 [Compound 150] | – | – | 50 percent control | 100 percent control |

| Compound | pest or weed control at 300 g/ha (Sphaerotheca fuliginea) | pest or weed control at 300 g/ha (Pyricularia oryzae) | Cucumber Powdery Mildew (CPM) protectant fungicide data, percent control (Sphaerotheca fuliginea) | Rice Blast (RB) protectant fungicide data, percent control (Pyricularia oryzae) |
| --- | --- | --- | --- | --- |
| CCCCN1N=C(c2c(Cl)cncc2Cl)NCC1=O [Compound 121] | – | – | 0 percent control | 80 percent control |
| C#CCN1CC(=O)N(CCCC)N=C1c1cc(Cl)cc(Cl)c1 [Compound 131] | – | – | 75 percent control | 80 percent control |
| O=C1CNC(c2ccc(F)c(Br)c2)=NN1CC1CC1 [Compound 220] | – | – | 80 percent control | 100 percent control |
| O=C1CNC(c2ccccc2Cl)=NN1CC(F)(F)F [Compound 97] | – | – | 85 percent control | 0 percent control |
| CCCCN1N=C(c2ccc(Cl)c(Cl)c2)N(C(=S)SC)CC1=O [Compound 12, 1-n-butyl-3-(3,4-dichlorophenyl)-4-methylthiothiocarbonyl-4,5-dihydro-1,2,4-triazin-6-one] | 0% | 95% | – | – |
| CCCCN1N=C(c2ccc(C)c(Cl)c2)NCC1=O [Compound 294] | – | – | 80 percent control | 100 percent control |
| Cc1cccc(C2=NN(CC(F)(F)F)C(=O)CN2)c1 [Compound 154] | – | – | 75 percent control | 0 percent control |
| O=C1CNC(c2ccc(Cl)cc2)=NN1c1ccccn1 [Compound 59] | – | – | 0 percent control | 50 percent control |
| O=C1CN(CC=CCl)C(c2cc(Cl)cc(Cl)c2)=NN1CC=CCl (mixture of isomers) [Compound 66] | – | – | 0 percent control | 50 percent control |
| O=C1CNC(c2cccc(Cl)c2)=NN1c1ccccc1 [Compound 111] | – | – | 90 percent control | 85 percent control |
| CCCCN1N=C(c2ccc(C(F)(F)F)cc2)NCC1=O [Compound 117] | – | – | 0 percent control | 90 percent control |
| O=C1CN(C(=O)Oc2ccccc2)C(c2cc(Cl)cc(Cl)c2)=NN1CC(F)(F)F [Compound 193] | – | – | 0 percent control | 80 percent control |
| CCCCN1N=C(c2cc(Cl)cc(Cl)c2)N(C(=O)OCI)CC1=O [Compound 16, 1-(n-butyl)-3-(3,5-dichlorophenyl)-4-(iodomethyloxycarbonyl)-4,5-dihydro-1,2,4-triazin-6-one] | 75% | 90% | – | – |
| C#CCN1CC(=O)N(CC#C)N=C1c1cccc(C(F)(F)F)c1 [Compound 87] | – | – | 0 percent control | 90 percent control |
| CCCCN1N=C(C)NC(c2cccc(OC)c2)C1=O (centres unmarked) [Compound 80] | – | – | 50 percent control | 0 percent control |
| O=C1CNC(c2ccccn2)=NN1Cc1ccccc1 [Compound 185] | – | – | 75 percent control | 80 percent control |
| CCCCN1N=C(c2ccc(Cl)c(Cl)c2)N(Cc2ccc(OC)cc2)CC1=O [Compound 199] | – | – | 0 percent control | 90 percent control |
| CCCCOc1ccc(C2=NN(CCC#N)C(=O)CN2)cc1 [Compound 160] | – | – | 0 percent control | 75 percent control |
| CCCCN1N=C(c2cc(Br)c(OC)c(Br)c2)NCC1=O [Compound 120] | – | – | 0 percent control | 80 percent control |
| O=C1CNC(c2ccc3ccccc3c2)=NN1CC(F)(F)F [Compound 143] | – | – | 50 percent control | 98 percent control |
